Laboratory results taken from article PMC9319741, “A Novel ERK2 Degrader Z734 Induces Apoptosis of MCF–7 Cells via the HERC3/p53 Signaling Pathway” (Molecules, 2022).

Columns and labels:
[1] = biological target: T1, ERK2 (Homo sapiens, UniProt P28482); assay: IMAP TR-FRET enzymatic kinase (cascade) assay; assay type: biochemical
T1 construct: gene MAPK1

[2] = biological target: T2, ERK1 (Homo sapiens, UniProt P27361); assay: IMAP TR-FRET enzymatic kinase (cascade) assay; assay type: biochemical
T2 construct: gene MAPK3
T2 sequence (P27361 2-379): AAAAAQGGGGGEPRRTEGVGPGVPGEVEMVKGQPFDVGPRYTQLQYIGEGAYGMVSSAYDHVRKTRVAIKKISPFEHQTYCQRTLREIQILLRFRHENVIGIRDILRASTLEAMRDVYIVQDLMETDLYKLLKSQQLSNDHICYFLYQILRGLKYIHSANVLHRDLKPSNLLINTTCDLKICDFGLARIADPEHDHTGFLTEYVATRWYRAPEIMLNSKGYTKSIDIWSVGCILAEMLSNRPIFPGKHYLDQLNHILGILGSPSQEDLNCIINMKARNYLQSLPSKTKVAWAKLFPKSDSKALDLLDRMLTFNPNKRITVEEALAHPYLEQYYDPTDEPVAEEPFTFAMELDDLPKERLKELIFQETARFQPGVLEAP

T1 sequence (P28482 2-360): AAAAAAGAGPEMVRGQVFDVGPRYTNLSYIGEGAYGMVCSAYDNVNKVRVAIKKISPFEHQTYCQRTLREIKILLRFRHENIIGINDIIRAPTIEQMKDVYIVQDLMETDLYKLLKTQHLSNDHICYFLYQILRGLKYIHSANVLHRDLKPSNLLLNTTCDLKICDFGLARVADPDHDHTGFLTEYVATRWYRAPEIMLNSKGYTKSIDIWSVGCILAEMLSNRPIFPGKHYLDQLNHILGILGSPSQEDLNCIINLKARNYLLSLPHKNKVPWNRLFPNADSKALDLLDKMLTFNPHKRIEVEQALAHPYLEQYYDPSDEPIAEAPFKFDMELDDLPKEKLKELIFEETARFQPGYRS

## CC(=O)NC(CC(=O)N(c1ccccc1)c1nc2ccccc2s1)c1ccccc1 (centres unmarked) [Z734]
[1]
  IC50: 3 nM
[2]
  IC50: 9 nM
